Experimental data as given in US20110086759A1, “CHEMICAL COMPOUNDS” (SYNGENTA CROP PROTECTION, INC., priority 2007, published 2011).

Tests used:
Type in all cases: in vivo
Solanum nigrum (SOLNI) [1] = assay: Pre-emergence biological efficacy, glasshouse pot test; conditions: 312 h
How it was run: (§1)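 Test compound, formulated in acetone/water (50:50) containing 0.5% Tween 20 and diluted into an aqueous spray, was applied at 1000 or 250 g/ha to pots sown one day earlier. Injury was rated after 13 days, 100 meaning total damage.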

[2] = tested on: Ipomea hederaceae (IPOHE); assay: as above; conditions: Ipomoea hederacea, 312 h
How it was run: as §1

Setaria faberi (SETFA) [3] = assay: as above; conditions: 312 h
How it was run: as §1

[4] = tested on: Echinochloa crus-galli (ECHCG); assay: as above; conditions: 312 h
How it was run: as §1

[5] = tested on: Amaranthus retoflexus (AMARE); assay: as above; conditions: Amaranthus retroflexus, 312 h
How it was run: as §1

[6] = tested on: Alopecurus myosuroides (ALOMY); assay: as above; conditions: 312 h
How it was run: as §1

Solanum nigrum (SOLNI) [7] = assay: Post-emergence biological efficacy, glasshouse pot test; conditions: 312 h
How it was run: (§2)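 Plants were sown in standard soil and grown 8 days in a glasshouse (24/16° C. day/night, 14 hours light, 65% humidity), then sprayed post-emergence at 1000 or 250 g/ha from acetone/water (50:50) with 0.5% Tween 20. Damage was scored visually after 13 days (0 = none, 100 = total).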

[8] = tested on: Ipomea hederaceae (IPOHE); assay: as above; conditions: Ipomoea hederacea, 312 h
How it was run: as §2

Setaria faberi (SETFA) [9] = assay: as above; conditions: 312 h
How it was run: as §2

[10] = tested on: Echinochloa crus-galli (ECHCG); assay: as above; conditions: 312 h
How it was run: as §2

[11] = tested on: Amaranthus retoflexus (AMARE); assay: as above; conditions: Amaranthus retroflexus, 312 h
How it was run: as §2

[12] = tested on: Alopecurus myosuroides (ALOMY); assay: as above; conditions: 312 h
How it was run: as §2

[13] = pre-emergence, 1,000 g/ha, evaluated after 13 days (100=total damage; 0=no damage), read-out: Percentage damage SOLNI
[14] = pre-emergence, 1,000 g/ha, evaluated after 13 days (100=total damage; 0=no damage), read-out: Percentage damage IPOHE
[15] = pre-emergence, 1,000 g/ha, evaluated after 13 days (100=total damage; 0=no damage), read-out: Percentage damage SETFA
[16] = pre-emergence, 1,000 g/ha, evaluated after 13 days (100=total damage; 0=no damage), read-out: Percentage damage ECHCG
[17] = pre-emergence, 1,000 g/ha, evaluated after 13 days (100=total damage; 0=no damage), read-out: Percentage damage AMARE
[18] = pre-emergence, 1,000 g/ha, evaluated after 13 days (100=total damage; 0=no damage), read-out: Percentage damage ALOMY
[19] = post-emergence, 1,000 g/ha, evaluated after 13 days (100=total damage; 0=no damage), read-out: Percentage damage caused to weed species, SOLNI
[20] = post-emergence, 1,000 g/ha, evaluated after 13 days (100=total damage; 0=no damage), read-out: Percentage damage caused to weed species, IPOHE
[21] = post-emergence, 1,000 g/ha, evaluated after 13 days (100=total damage; 0=no damage), read-out: Percentage damage caused to weed species, SETFA
[22] = post-emergence, 1,000 g/ha, evaluated after 13 days (100=total damage; 0=no damage), read-out: Percentage damage caused to weed species, ECHCG
[23] = post-emergence, 1,000 g/ha, evaluated after 13 days (100=total damage; 0=no damage), read-out: Percentage damage caused to weed species, AMARE
[24] = post-emergence, 1,000 g/ha, evaluated after 13 days (100=total damage; 0=no damage), read-out: Percentage damage caused to weed species, ALOMY

Row | SMILES | pest or weed control at 1000 g/ha (Solanum nigrum (SOLNI) [1]; [13]) | pest or weed control at 1000 g/ha [2, 14] | pest or weed control at 1000 g/ha (Setaria faberi (SETFA) [3]; [15]) | pest or weed control at 1000 g/ha [4, 16] | pest or weed control at 1000 g/ha [5, 17] | pest or weed control at 1000 g/ha [6, 18] | pest or weed control at 1000 g/ha (Solanum nigrum (SOLNI) [7]; [19]) | pest or weed control at 1000 g/ha [8, 20] | pest or weed control at 1000 g/ha (Setaria faberi (SETFA) [9]; [21]) | pest or weed control at 1000 g/ha [10, 22] | pest or weed control at 1000 g/ha [11, 23] | pest or weed control at 1000 g/ha [12, 24] | other results
1 | COC(=O)c1nc(C2CC2)nc(N[C@H]2COC[C@H]2O)c1Cl [4-38 (S,S), 5-Chloro-2-cyclopropyl-4-[(3S, 4S)-4-hydroxytetra-hydrofuran-3-ylamino]-6-methoxycarbonyl-pyrimidine] | 80% | 70% | 30% | 30% | 100% | 20% | 80% | 30% | 60% | 10% | 100% | 30% | –
2 | COC(=O)c1nc(C2CC2)nc(NCc2ccc3c(c2)OCO3)c1Cl [Compound 4-115, 4-(Benzo[1,3]-dioxol-5-ylmethyl-amino)-5-chloro-2-cyclopropyl-6-methoxycarbonyl-pyrimidine] | 90% | 90% | 60% | 60% | 100% | 30% | 100% | 100% | 90% | 80% | 100% | 60% | –
3 | COC(=O)c1nc(C2CC2)nc(NCC(O)c2cccc(O)c2)c1Cl (stereo not drawn) [Compound 4-258, 5-Chloro-2-cyclopropyl-4-[2-hydroxy-2-(3-hydroxyphenyl)-ethylamino]-6-methoxycarbonyl-pyrimidine] | 100% | 100% | 40% | 30% | 100% | 30% | 80% | 90% | 70% | 60% | 100% | 30% | –
4 | COC(=O)c1nc(C2CC2)nc(N(CCO)Cc2cccnc2)c1Cl [Compound 157-156, 5-Chloro-2-cyclopropyl-4-(N-2-hydroxyethyl-N-pyrid-3-ylmethyl--amino)-6-methoxy-carbonylpyrimidine] | – | – | – | – | – | – | – | – | – | – | – | – | pest or weed control at 1000 g/ha (Solanum nigrum (SOLNI) [1]; pre-emergence, rate 1,000 g/ha, evaluated after 13 days (100=total damage to plant; 0=no damage), read-out: Percentage damage caused to weed species, SOLNI): 20%; pest or weed control at 1000 g/ha ([2]; pre-emergence, rate 1,000 g/ha, evaluated after 13 days (100=total damage to plant; 0=no damage), read-out: Percentage damage caused to weed species, IPOHE): 40%; pest or weed control at 1000 g/ha (Setaria faberi (SETFA) [3]; pre-emergence, rate 1,000 g/ha, evaluated after 13 days (100=total damage to plant; 0=no damage), read-out: Percentage damage caused to weed species, SETFA): 0%; pest or weed control at 1000 g/ha ([4]; pre-emergence, rate 1,000 g/ha, evaluated after 13 days (100=total damage to plant; 0=no damage), read-out: Percentage damage caused to weed species, ECHCG): 0%; pest or weed control at 1000 g/ha ([5]; pre-emergence, rate 1,000 g/ha, evaluated after 13 days (100=total damage to plant; 0=no damage), read-out: Percentage damage caused to weed species, AMARE): 40%; pest or weed control at 1000 g/ha ([6]; pre-emergence, rate 1,000 g/ha, evaluated after 13 days (100=total damage to plant; 0=no damage), read-out: Percentage damage caused to weed species, ALOMY): 0%; pest or weed control at 1000 g/ha (Solanum nigrum (SOLNI) [7]; Rate 1,000 g/ha, post-emergence spray, evaluated after 13 days (100=total damage to plant; 0=no damage to plant), read-out: Percentage damage caused to weed species, post-emergence, SOLNI): 40%; pest or weed control at 1000 g/ha ([8]; Rate 1,000 g/ha, post-emergence spray, evaluated after 13 days (100=total damage to plant; 0=no damage to plant), read-out: Percentage damage caused to weed species, post-emergence, IPOHE): 40%; pest or weed control at 1000 g/ha (Setaria faberi (SETFA) [9]; Rate 1,000 g/ha, post-emergence spray, evaluated after 13 days (100=total damage to plant; 0=no damage to plant), read-out: Percentage damage caused to weed species, post-emergence, SETFA): 0%; pest or weed control at 1000 g/ha ([10]; Rate 1,000 g/ha, post-emergence spray, evaluated after 13 days (100=total damage to plant; 0=no damage to plant), read-out: Percentage damage caused to weed species, post-emergence, ECHCG): 0%; pest or weed control at 1000 g/ha ([11]; Rate 1,000 g/ha, post-emergence spray, evaluated after 13 days (100=total damage to plant; 0=no damage to plant), read-out: Percentage damage caused to weed species, post-emergence, AMARE): 40%; pest or weed control at 1000 g/ha ([12]; Rate 1,000 g/ha, post-emergence spray, evaluated after 13 days (100=total damage to plant; 0=no damage to plant), read-out: Percentage damage caused to weed species, post-emergence, ALOMY): 0%
